inhibition, Ki and IC50 data for 32 molecules are collected here from ChEMBL document CHEMBL1156268, “Michael acceptor based antiplasmodial and antitrypanosomal cysteine protease inhibitors with unusual amino acids” (J Med Chem, 2010).

Molecules are shown by their SMILES. Active and inactive are the calls of the source. The rule behind the calls is not given here. Residues, ends and D or L forms follow the SMILES beside them. *: point of attachment. X1 = O=C(/C=C/CO)* A value given as a limit tells only on which side of the number the result lay.

Experiment [1] concerns Plasmodium falciparum. Nature of the experiment: Inhibition of Plasmodium falciparum recombinant falcipain-2 at 100 uM by standard fluorescence assay.
For experiment [2], the target named is Rhodesain (Trypanosoma brucei rhodesiense) (UniProt Q95PM0). Kind of experiment: Inhibition of Trypanosoma brucei rhodesiense recombinant rhodesain at 100 uM by standard fluorescence assay.
Experiment [3] has as its system Plasmodium falciparum. Kind of experiment: Antiplasmodial activity against Plasmodium falciparum W2 at 100 uM by flow cytometry. In kind it is functional.
The subject of experiment [4] is Plasmodium falciparum. Kind of experiment: Inhibition of Plasmodium falciparum recombinant falcipain-3 at 100 uM by standard fluorescence assay.
Experiment [5] deals with Trypanosoma brucei brucei. Nature of the experiment: Antitrypanosomal activity against Trypanosoma brucei brucei at 100 uM. In kind it is functional, organism-based.
Experiment [6] in a line: Inhibition of Plasmodium falciparum recombinant falcipain-2 using Cbz-Leu-Arg-AMC as substrate by standard fluorescence assay.
Experiment [7] is described as follows: Inhibition of Plasmodium falciparum recombinant falcipain-3 by standard fluorescence assay.
The test system of experiment [8] is Plasmodium falciparum. Nature of the experiment: Antiplasmodial activity against Plasmodium falciparum W2 by flow cytometry. Format: functional, organism-based.
Experiment [9] concerns Trypanosoma brucei brucei. Nature of the experiment: Antitrypanosomal activity against Trypanosoma brucei brucei. Format: functional, organism-based.
Experiment [10] can be described thus: Cytotoxicity against mouse J774.1 cells. In kind it is cell-based.

Sequence of Rhodesain (Trypanosoma brucei rhodesiense) (Q95PM0 1-450): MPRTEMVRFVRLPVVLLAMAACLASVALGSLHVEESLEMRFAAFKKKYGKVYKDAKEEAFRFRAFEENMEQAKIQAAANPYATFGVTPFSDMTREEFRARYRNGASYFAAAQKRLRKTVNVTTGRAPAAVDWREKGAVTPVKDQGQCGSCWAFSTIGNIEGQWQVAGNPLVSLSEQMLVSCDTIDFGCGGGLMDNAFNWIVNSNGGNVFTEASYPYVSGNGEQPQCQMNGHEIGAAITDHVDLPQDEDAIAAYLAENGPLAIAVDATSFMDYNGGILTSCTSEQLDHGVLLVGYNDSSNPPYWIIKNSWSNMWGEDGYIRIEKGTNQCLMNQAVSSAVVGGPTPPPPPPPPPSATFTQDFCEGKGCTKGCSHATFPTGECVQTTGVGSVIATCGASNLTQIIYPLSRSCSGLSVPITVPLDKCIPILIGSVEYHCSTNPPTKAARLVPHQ

With `CCOC(=O)/C=C/COC(=O)[C@H](CCC(N)=O)NC(=O)[C@H](CC(C)C)NC(=O)OC(C)(C)C`, the inhibition result (in the experiment on Plasmodium falciparum [1]; in [2]; with Plasmodium falciparum [3]; with Plasmodium falciparum [4]; in experiment [5]) was “inactive” throughout.
Take `CCOC(=O)/C=C\C(=O)N[C@@H](Cc1ccccc1)C(=O)N[C@@H](C)C(=O)N[C@@H](CC(C)C)C(=O)OCc1ccccc1`: the Ki was 6.6 µM in experiment [6] and 36.8 µM in [7]. Moreover, the IC50 in the experiment on Plasmodium falciparum [8] turned out to be 28.4 µM; in experiment [9], 14.9 µM; in experiment [10] it was 29 µM. In experiment [2], the inhibition worked out at 29%.
On to `CCOC(=O)/C=C/COC(=O)[C@H](CC(N)=O)NC(=O)[C@H](CC(C)C)NC(=O)OC(C)(C)C`, for which the Ki in experiment [6] came to 25.1 µM. Moreover, the inhibition result (in [2]; in the experiment with Plasmodium falciparum [3]; in the experiment on Plasmodium falciparum [4]; in experiment [5]) was “inactive” each time.
On to `CC(C)C[C@H](NC(=O)[C@H](C)NC(=O)[C@H](Cc1ccccc1)NC(=O)/C=C\C(=O)O)C(=O)OCc1ccccc1`, for which the Ki in [6] came out at 10.5 µM. For the same molecule, in the experiment on Plasmodium falciparum [8], the IC50 is 14.6 µM. Further, in the experiment with Plasmodium falciparum [4], the inhibition result is “inactive”.
In the case of `O=C(O)/C=C/C(=O)N[C@@H](Cc1ccccc1)C(=O)OCc1ccccc1`, the inhibition entry (in the experiment with Plasmodium falciparum [1]; with Plasmodium falciparum [3]; in [5]) was “inactive” each time. For the same molecule, the inhibition in [2] turned out to be 11%.
For the molecule `CCOC(=O)/C=C/C(=O)O.CCOC(=O)/C=C/C(=O)OC[C@H](CCC(N)=O)NC(=O)OC(C)(C)C`, the inhibition entry (in the experiment with Plasmodium falciparum [1]; in experiment [2]; in the experiment with Plasmodium falciparum [3]; in the experiment with Plasmodium falciparum [4]; in [5]) was “inactive” each time.
Take `O=C(O)/C=C\C(=O)N[C@@H](Cc1ccccc1)C(=O)OCc1ccccc1`: the figures for the Ki in [6] and in [7] were 7.6 µM and 43 µM, respectively. Further, in the experiment on Plasmodium falciparum [8], half-maximal inhibition (IC50) required 100 µM. The inhibition result in experiment [2] and in [5] was “inactive” in each case.
For the molecule `CCOC(=O)/C=C/C(=O)N[C@@H](CC(=O)NC(c1ccccc1)(c1ccccc1)c1ccccc1)C(=O)OC`, the Ki in experiment [6] amounted to 12 µM. Also, the IC50 amounted to 7.3 µM in the experiment on Plasmodium falciparum [8] and 25.1 µM in [9]. In addition, the inhibition in experiment [2] is 20%. For the same molecule, in the experiment with Plasmodium falciparum [4], the inhibition result is “inactive”.
For the molecule `CCOC(=O)/C=C/CCOC(=O)[C@H](Cc1ccccc1)NC(=O)OCc1ccccc1`, in experiment [6], the Ki stood at 29.1 µM. The IC50 was 19 µM in experiment [9] and over 100 µM in experiment [10]. Moreover, in [2], the inhibition was 36%. Besides, the inhibition result with Plasmodium falciparum [3] and in the experiment with Plasmodium falciparum [4] was “inactive” in each case.
Regarding `CCOC(=O)/C=C/CN[C@@H](Cc1ccccc1)C(=O)OCc1ccccc1`, the Ki in experiment [6] was 152 µM. Also, the IC50 in [9] came to 25 µM; in experiment [10], 36.1 µM. Moreover, the inhibition result (in experiment [2]; in the experiment with Plasmodium falciparum [3]; in the experiment with Plasmodium falciparum [4]) was “inactive” each time.
Consider `CCOC(=O)/C=C/OC[C@H](CCC(N)=O)NC(=O)OC(C)(C)C`, for which the inhibition result (in the experiment with Plasmodium falciparum [1]; in experiment [2]; in the experiment on Plasmodium falciparum [3]; in the experiment with Plasmodium falciparum [4]; in experiment [5]) was “inactive” each time.
On to `CCOC(=O)/C=C/C(=O)O.CCOC(=O)/C=C/C(=O)OC[C@H](CCC(N)=O)NC(=O)[C@@H](NC(=O)OC(C)(C)C)c1ccccc1`, for which, in [9], it took 31.3 µM to reach half-maximal inhibition (IC50). Also, in the experiment with Plasmodium falciparum [1], the inhibition entry is “inactive”. For the same molecule, the inhibition in experiment [2] worked out at 25%.
`CCOC(=O)/C=C/CN[C@@H](CCC(N)=O)C(=O)OC(C)(C)C`: the inhibition entry (in the experiment on Plasmodium falciparum [1]; in experiment [2]; in the experiment on Plasmodium falciparum [3]; in the experiment with Plasmodium falciparum [4]; in experiment [5]) was “inactive” each time.
With `CCOC(=O)/C=C\C(=O)N[C@@H](Cc1ccccc1)C(=O)OCc1ccccc1`, the Ki in experiment [6] was determined as 26.1 µM. In addition, the IC50 was found to be 8 µM in experiment [9] and 3.3 µM in [10]. The inhibition in experiment [2] turned out to be 15%. Moreover, at 100 µM the inhibition with Plasmodium falciparum [3] was 28%. The inhibition result in the experiment on Plasmodium falciparum [4] is “inactive”.
As for `CCOC(=O)/C=C\C(=O)N[C@@H](Cc1ccccc1)C(=O)N[C@@H](C)C(=O)OCc1ccccc1`, the Ki in experiment [6] came out at 25.1 µM. In addition, the IC50 in experiment [9] was 2.7 µM; in experiment [10], 3 µM. In addition, in experiment [2], the inhibition was 43%. Moreover, the inhibition result in the experiment on Plasmodium falciparum [3] and in the experiment on Plasmodium falciparum [4] was “inactive” throughout.
`CCOC(=O)/C=C\[C@H](Cc1ccccc1)NC(=O)OC(C)(C)C`: the inhibition constant (Ki) in experiment [6] came to 16.7 µM; in experiment [7] it was 198 µM. This molecule also displayed an IC50 with Plasmodium falciparum [8] of 100 µM. Further, the inhibition entry in experiment [2] and in [5] was “inactive” throughout.
`CCOC(=O)/C=C/N[C@@H](CCC(N)=O)C(=O)OC(C)(C)C`: the inhibition result (in the experiment on Plasmodium falciparum [1]; in experiment [2]; with Plasmodium falciparum [3]; with Plasmodium falciparum [4]; in experiment [5]) was “inactive” throughout.
With `CCOC(=O)/C=C/C(=O)O.CCOC(=O)/C=C/C(=O)OC[C@H](CC(N)=O)NC(=O)OC(C)(C)C`, the inhibition entry (in the experiment on Plasmodium falciparum [1]; in [2]; in the experiment with Plasmodium falciparum [3]; in the experiment with Plasmodium falciparum [4]; in [5]) was “inactive” in each case.
With `CCOC(=O)/C=C/CN[C@@H](CC(N)=O)C(=O)OC(C)(C)C`, the inhibition entry (in the experiment with Plasmodium falciparum [1]; in experiment [2]; with Plasmodium falciparum [3]; with Plasmodium falciparum [4]; in experiment [5]) was “inactive” each time.
`CC(C)C[C@H](NC(=O)[C@H](CCC(N)=O)NC(=O)/C=C/CO)C(=O)N[C@H](C(=O)N[C@H](C(N)=O)C(C)C)C(C)C` (X1-QLVV-NH2): in the experiment on Plasmodium falciparum [1], the inhibition came to 27%. Moreover, the inhibition entry in experiment [2] is “inactive”.
As to `CCOC(=O)/C=C/COC(=O)[C@H](CC(N)=O)NC(=O)[C@@H](NC(=O)OC(C)(C)C)C1CCCCC1`, the half-maximal inhibitory concentration (IC50) in the experiment with Plasmodium falciparum [8] was 13.2 µM. Further, the inhibition entry (in the experiment with Plasmodium falciparum [1]; in [2]; in the experiment on Plasmodium falciparum [4]; in experiment [5]) was “inactive” each time.
For the molecule `CCOC(=O)/C=C/C(=O)N[C@@H](CCC(N)=O)C(=O)OC(C)(C)C`, the IC50 with Plasmodium falciparum [8] came out at 75.3 µM. For the same molecule, the inhibition result (with Plasmodium falciparum [1]; in experiment [2]; in the experiment with Plasmodium falciparum [4]; in [5]) was “inactive” each time.
For `CCOC(=O)/C=C/N[C@@H](CC(N)=O)C(=O)OC(C)(C)C`, the inhibition result (in the experiment on Plasmodium falciparum [1]; in experiment [2]; in the experiment with Plasmodium falciparum [3]; in the experiment on Plasmodium falciparum [4]; in experiment [5]) was “inactive” each time.
Turning to `CCOC(=O)/C=C/COC(=O)[C@H](CCC(N)=O)NC(=O)[C@H](CC(C)C)NC(=O)[C@H](C)NC(=O)OC(C)(C)C`, the Ki came to 3.1 µM in experiment [6] and 23.9 µM in [7]. The molecule further came in with an IC50 with Plasmodium falciparum [8] of 20.8 µM. Moreover, the inhibition entry in experiment [2] and in experiment [5] was “inactive” each time.
Regarding `CCOC(=O)/C=C/C(=O)N[C@@H](CC(N)=O)C(=O)OC(C)(C)C`, the inhibition result (in the experiment with Plasmodium falciparum [1]; in experiment [2]; in the experiment with Plasmodium falciparum [3]; in the experiment with Plasmodium falciparum [4]; in [5]) was “inactive” in each case.
Consider `C[C@H](NC(=O)[C@H](Cc1ccccc1)NC(=O)/C=C\C(=O)O)C(=O)OCc1ccccc1`, for which the Ki in [6] amounted to 25 µM. In the experiment with Plasmodium falciparum [8], this molecule displayed an IC50 of 50.3 µM. The inhibition result with Plasmodium falciparum [4] was “inactive”.
For `CCOC(=O)/C=C\C(=O)OC[C@H](Cc1ccccc1)NC(=O)OC(C)(C)C`, the Ki in [6] came out at 54.3 µM. Further, the IC50 was found to be 100 µM in the experiment on Plasmodium falciparum [8] and 17 µM in experiment [9]. Besides, the inhibition entry with Plasmodium falciparum [4] is “inactive”.
`CCOC(=O)/C=C/COC(=O)[C@H](CCC(N)=O)NC(=O)OC(C)(C)C`: the Ki in experiment [6] was determined as 37.7 µM. Moreover, the inhibition result (in experiment [2]; with Plasmodium falciparum [3]; in the experiment on Plasmodium falciparum [4]; in experiment [5]) was “inactive” each time.
In the case of `CCOC(=O)/C=C/COC(=O)[C@H](CC(N)=O)NC(=O)OC(C)(C)C`, the Ki in [6] came out at 17 µM; in experiment [7], 58 µM. In the experiment with Plasmodium falciparum [8], this molecule registered an IC50 of 34.8 µM. The inhibition result in experiment [2] and in [5] was “inactive” in each case.
With `C/C=C/C(=O)N[C@@H](Cc1ccccc1)C(=O)OCc1ccccc1`, the Ki in experiment [6] is 20.3 µM. For the same molecule, the 50% inhibitory concentration (IC50) was found to be 2.8 µM in experiment [9] and 45.2 µM in [10]. Further, the inhibition result (in experiment [2]; with Plasmodium falciparum [3]; with Plasmodium falciparum [4]) was “inactive” each time.
On to `CCOC(=O)/C=C/COC(=O)[C@H](CCC(N)=O)NC(=O)[C@@H](NC(=O)OC(C)(C)C)C1CCCCC1`, for which, in experiment [6], the Ki was 25 µM. Further, in experiment [9], the IC50 is 32 µM. In addition, the inhibition entry (in experiment [2]; in the experiment on Plasmodium falciparum [3]; in the experiment with Plasmodium falciparum [4]) was “inactive” each time.
As for `CCOC(=O)/C=C\CNC(=O)[C@@H](Cc1ccccc1)NC(=O)OC(C)(C)C`, the results for the IC50 (in the experiment with Plasmodium falciparum [8]; in [9]) were 43.1 µM and 29 µM, respectively. The inhibition result in the experiment on Plasmodium falciparum [1] is “inactive”. Besides, the inhibition in experiment [2] came to 47%.
